These are literature values, as cited in EP0975321B1, “THE USE OF THIOGLYCOLIC ACID AS DEPIGMENTING AGENT” (I.V. Pharma S.A.S., priority 1997, dated 1998).

For this series the following is noted: Acidic strength; Table 1.

Regarding `O=C(O)CS` [Tioglycolic acid, 2-mercaptoacetic acid], the pKa value is reported as 3.68. With `O=C(O)C(Cl)(Cl)Cl` [Trichloroacetic acid], the pKa value is recorded as 0.70.
